# Source: PubChem BioAssay (NCI)
#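 Five concentrations, 48 hours, 96-well plates. At the GI50, growth is halved. Definition used: TGI = concentration required for complete inhibition of growth.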
# Legend:
# Assay in all cases: NCI-60 cell line screen, 48 h
# DU-145 prostate = test system: DU-145 prostate
# SF-295 CNS = test system: SF-295 CNS
# OVCAR-5 ovarian = test system: OVCAR-5 ovarian
# NCI-H23 lung = test system: NCI-H23 lung
# HT29 colon = test system: HT29 colon
# IGROV1 ovarian = test system: IGROV1 ovarian
# COLO 205 colon = test system: COLO 205 colon
# HOP-92 NSCLC = test system: HOP-92 NSCLC
# OVCAR-8 ovarian = test system: OVCAR-8 ovarian
# UO-31 renal = test system: UO-31 renal
# 786-0 renal = test system: 786-0 renal
# NCI-H522 lung = test system: NCI-H522 lung
# KM12 colon = test system: KM12 colon
# HS 578T breast = test system: HS 578T breast
# MALME-3M melanoma = test system: MALME-3M melanoma
# RXF 393 renal = test system: RXF 393 renal
# SW-620 colon = test system: SW-620 colon
# SN12C renal = test system: SN12C renal
# ACHN renal = test system: ACHN renal
# A498 renal = test system: A498 renal
# SK-OV-3 ovarian = test system: SK-OV-3 ovarian
# OVCAR-3 ovarian = test system: OVCAR-3 ovarian
# K-562 leukemia = test system: K-562 leukemia
# SNB-75 CNS = test system: SNB-75 CNS
# HCT-15 colon = test system: HCT-15 colon
# NCI/ADR-RES ovarian = test system: NCI/ADR-RES ovarian
# HCT-116 colon = test system: HCT-116 colon
# UACC-257 melanoma = test system: UACC-257 melanoma
smiles,measurement,setting,value
COc1ccc2c(c1)/C(=C/c1cc(OC)c(OC)c(OC)c1)C(=O)N2,GI50,DU-145 prostate,655 nM
same,TGI,DU-145 prostate,> 100000 nM
same,GI50,SF-295 CNS,104 nM
same,TGI,SF-295 CNS,602 nM
same,GI50,OVCAR-5 ovarian,1900 nM
same,TGI,OVCAR-5 ovarian,> 100000 nM
same,GI50,NCI-H23 lung,613 nM
same,TGI,NCI-H23 lung,> 63200 nM
same,GI50,HT29 colon,116 nM
same,TGI,HT29 colon,21100 nM
same,GI50,IGROV1 ovarian,268 nM
same,TGI,IGROV1 ovarian,> 53800 nM
same,GI50,COLO 205 colon,517 nM
same,TGI,COLO 205 colon,3030 nM
same,GI50,HOP-92 NSCLC,1430 nM
same,TGI,HOP-92 NSCLC,> 33900 nM
same,GI50,OVCAR-8 ovarian,1280 nM
same,TGI,OVCAR-8 ovarian,> 100000 nM
same,GI50,UO-31 renal,2740 nM
same,TGI,UO-31 renal,> 100000 nM
same,GI50,786-0 renal,236 nM
same,TGI,786-0 renal,> 94300 nM
same,GI50,NCI-H522 lung,250 nM
same,GI50,KM12 colon,102 nM
same,TGI,KM12 colon,> 39900 nM
same,GI50,HS 578T breast,362 nM
same,TGI,HS 578T breast,12800 nM
same,GI50,MALME-3M melanoma,556 nM
same,TGI,MALME-3M melanoma,> 100000 nM
same,GI50,RXF 393 renal,187 nM
same,TGI,RXF 393 renal,587 nM
same,GI50,SW-620 colon,175 nM
same,TGI,SW-620 colon,> 100000 nM
same,GI50,SN12C renal,1180 nM
same,TGI,SN12C renal,> 100000 nM
same,GI50,ACHN renal,4190 nM
same,TGI,ACHN renal,> 100000 nM
same,GI50,A498 renal,146 nM
same,TGI,A498 renal,848 nM
same,GI50,SK-OV-3 ovarian,260 nM
same,TGI,SK-OV-3 ovarian,5230 nM
same,TGI,OVCAR-3 ovarian,46.3 nM
same,GI50,K-562 leukemia,< 32.7 nM
same,TGI,K-562 leukemia,> 36300 nM
same,GI50,SNB-75 CNS,483 nM
same,TGI,SNB-75 CNS,2050 nM
same,GI50,HCT-15 colon,393 nM
same,TGI,HCT-15 colon,> 100000 nM
same,GI50,NCI/ADR-RES ovarian,142 nM
same,TGI,NCI/ADR-RES ovarian,1740 nM
same,GI50,HCT-116 colon,27.2 nM
same,TGI,HCT-116 colon,> 100000 nM
same,GI50,UACC-257 melanoma,615 nM
